Measured values reported in patent US20130273181A1, “METHODS AND COMPOSITIONS FOR DIAGNOSING AND TREATING MUSCLE MYOPATHY DISORDERS” (The Regents of the University of Colorado, a body Corporate, priority 2012, published 2013).

Assays:
Test in all cases: Calcium transient measurements (Fluo-3) in cultured myotubes in response to RyR1 agonist
[1] = target: T1, RyR1 (Mus musculus, UniProt E9PZQ0); type: cell-based; details: 4-CmC 0.5 mM, normal myotubes
T1 construct: produced substantial Ca^2+ release in both normal and Ryr1^m1Nisw/m1Nisw myotubes; endogenous in cells; host or cells: cultured myotubes from locomotor-normal mouse embryos
Description: (§1) RyR1 functions as a muscle isotype of ryanodine receptors that is mechanically activated by Dihydropyridine receptor (hereinafter “DHPR”) to release Ca^2+ from the sarcoplasmic reticulum (hereinafter SR), thus evoking excitation-contraction coupling (hereinafter E-C coupling). In some exemplary methods, whole-cell clamping in combination with a fluorescent Ca^2+ indicator, such as Fluo-3 AM, was used to study the E-C coupling function of RyR1^m1Nisw mutant protein in cultured myotubes. […] Addition of the RyR1 agonist, 4-chloro-m-cresol (4-CmC; 0.5 mM), produced substantial Ca^2+ release in both normal and Ryr1^m1Nisw/m1Nisw myotubes (peak ΔF/F of 1.4±0.1; n=5 vs. 1.2±0.1; n=3, respectively; p>0.05; FIG. 2d, e), compared to Ryr1^tm1Alle/tm1Alle null myotubes (ΔF/F 0.1±0.0; n=6; FIG. 2e). […] However, the rate of SR Ca^2+ release in response to 4-CmC was much slower in Ryr1^m1Nisw/m1Nisw versus normal myotubes (t1/2act=6.5±2.4 vs. 2.2±0.6 s, respectively; p<0.01; FIG. 2d). […] Under controlled physiological conditions, RyR1^m1Nisw/m1Nisw protein may be non-functional compared to wild type RyR1 in skeletal muscle.
(§2) FIG. 2a provides representative recordings of myoplasmic Ca^2+ transients elicited by 50-ms depolarizations from −50 mV to the indicated test potentials for locomotor normal myotubes (left; L. Normal) and Ryr1^m1Nisw/m1Nisw myotubes (right). […] FIG. 2c represents an exemplary histogram illustrating fractions of myotubes that contracted in response to a 100 V, 10 ms electrical stimulus for normal myotubes (black bar), Ryr1^m1Nisw/m1Nisw myotubes, and Ryr1^m1Nisw/m1Nisw myotubes transfected with YFP-tagged wild type RyR1 (RyR1-YFP, grey bar). The total number of myotubes tested is indicated above each bar. The defect of contraction observed in Ryr1^m1Nisw/m1Nisw myotubes (0%) was restored to 50-60% by expression of RyR1-YFP compared to the normal myotubes (90%). […] FIG. 2e represents an exemplary histogram of half-rise time of Ca^2+ transients in response to 4-CmC observed in normal (blackzbar), Ryr1^m1Nisw/m1Nisw (grey bar) and RyR1^tm1Alle/tm1Alle (white bar) myotubes. Error bars represent±SEM. An asterisk indicates a significant difference (p=0.006; t-test). The total number of myotubes tested is indicated above each bar.
(§3) Intracellular Ca^2+ was recorded with Fluo-3 (Invitrogen) at a final concentration of 200 μM that was injected by whole cell configuration, a waiting period of >5 min was used to allow the dye to diffuse into the cell interior. The total change in fluorescence (ΔF/F) was determined from the change in peak fluorescence from initial baseline during stimulation and F was the fluorescence immediately before the test pulse minus the measured average background (non Fluo-3) fluorescence before dye entry. For normal myotubes, average values of fluorescence change (ΔF) for each test potential (V) were fitted according to: (ΔF)=(ΔF)max/{1+exp[(VF−V)/kF]}, where (ΔF)max=1093 au, VF=−1.4 mV and kF=5.5 mV. Fluorescence emission was measured by fluorometer. Ryr1 cDNA was provided by Kurt Beam and Roger Bannister assisted in these experiments.

[2] = target: T2, RyR1 (Mus musculus, UniProt E9PZQ0, E4242G); type: cell-based; details: 4-CmC 0.5 mM, Ryr1^m1Nisw/m1Nisw myotubes
T2 construct: produced substantial Ca^2+ release in both normal and Ryr1^m1Nisw/m1Nisw myotubes; endogenous in cells; host or cells: cultured myotubes from locomotor-normal mouse embryos
Description: as §1, §2, §3

[3] = tested on: RyR1; type: cell-based, mouse; details: 4-CmC; Ryr1^tm1Alle/tm1Alle null myotubes; n=6
Description: as §1, §2, §3

T1 sequence (E9PZQ0 whole entry): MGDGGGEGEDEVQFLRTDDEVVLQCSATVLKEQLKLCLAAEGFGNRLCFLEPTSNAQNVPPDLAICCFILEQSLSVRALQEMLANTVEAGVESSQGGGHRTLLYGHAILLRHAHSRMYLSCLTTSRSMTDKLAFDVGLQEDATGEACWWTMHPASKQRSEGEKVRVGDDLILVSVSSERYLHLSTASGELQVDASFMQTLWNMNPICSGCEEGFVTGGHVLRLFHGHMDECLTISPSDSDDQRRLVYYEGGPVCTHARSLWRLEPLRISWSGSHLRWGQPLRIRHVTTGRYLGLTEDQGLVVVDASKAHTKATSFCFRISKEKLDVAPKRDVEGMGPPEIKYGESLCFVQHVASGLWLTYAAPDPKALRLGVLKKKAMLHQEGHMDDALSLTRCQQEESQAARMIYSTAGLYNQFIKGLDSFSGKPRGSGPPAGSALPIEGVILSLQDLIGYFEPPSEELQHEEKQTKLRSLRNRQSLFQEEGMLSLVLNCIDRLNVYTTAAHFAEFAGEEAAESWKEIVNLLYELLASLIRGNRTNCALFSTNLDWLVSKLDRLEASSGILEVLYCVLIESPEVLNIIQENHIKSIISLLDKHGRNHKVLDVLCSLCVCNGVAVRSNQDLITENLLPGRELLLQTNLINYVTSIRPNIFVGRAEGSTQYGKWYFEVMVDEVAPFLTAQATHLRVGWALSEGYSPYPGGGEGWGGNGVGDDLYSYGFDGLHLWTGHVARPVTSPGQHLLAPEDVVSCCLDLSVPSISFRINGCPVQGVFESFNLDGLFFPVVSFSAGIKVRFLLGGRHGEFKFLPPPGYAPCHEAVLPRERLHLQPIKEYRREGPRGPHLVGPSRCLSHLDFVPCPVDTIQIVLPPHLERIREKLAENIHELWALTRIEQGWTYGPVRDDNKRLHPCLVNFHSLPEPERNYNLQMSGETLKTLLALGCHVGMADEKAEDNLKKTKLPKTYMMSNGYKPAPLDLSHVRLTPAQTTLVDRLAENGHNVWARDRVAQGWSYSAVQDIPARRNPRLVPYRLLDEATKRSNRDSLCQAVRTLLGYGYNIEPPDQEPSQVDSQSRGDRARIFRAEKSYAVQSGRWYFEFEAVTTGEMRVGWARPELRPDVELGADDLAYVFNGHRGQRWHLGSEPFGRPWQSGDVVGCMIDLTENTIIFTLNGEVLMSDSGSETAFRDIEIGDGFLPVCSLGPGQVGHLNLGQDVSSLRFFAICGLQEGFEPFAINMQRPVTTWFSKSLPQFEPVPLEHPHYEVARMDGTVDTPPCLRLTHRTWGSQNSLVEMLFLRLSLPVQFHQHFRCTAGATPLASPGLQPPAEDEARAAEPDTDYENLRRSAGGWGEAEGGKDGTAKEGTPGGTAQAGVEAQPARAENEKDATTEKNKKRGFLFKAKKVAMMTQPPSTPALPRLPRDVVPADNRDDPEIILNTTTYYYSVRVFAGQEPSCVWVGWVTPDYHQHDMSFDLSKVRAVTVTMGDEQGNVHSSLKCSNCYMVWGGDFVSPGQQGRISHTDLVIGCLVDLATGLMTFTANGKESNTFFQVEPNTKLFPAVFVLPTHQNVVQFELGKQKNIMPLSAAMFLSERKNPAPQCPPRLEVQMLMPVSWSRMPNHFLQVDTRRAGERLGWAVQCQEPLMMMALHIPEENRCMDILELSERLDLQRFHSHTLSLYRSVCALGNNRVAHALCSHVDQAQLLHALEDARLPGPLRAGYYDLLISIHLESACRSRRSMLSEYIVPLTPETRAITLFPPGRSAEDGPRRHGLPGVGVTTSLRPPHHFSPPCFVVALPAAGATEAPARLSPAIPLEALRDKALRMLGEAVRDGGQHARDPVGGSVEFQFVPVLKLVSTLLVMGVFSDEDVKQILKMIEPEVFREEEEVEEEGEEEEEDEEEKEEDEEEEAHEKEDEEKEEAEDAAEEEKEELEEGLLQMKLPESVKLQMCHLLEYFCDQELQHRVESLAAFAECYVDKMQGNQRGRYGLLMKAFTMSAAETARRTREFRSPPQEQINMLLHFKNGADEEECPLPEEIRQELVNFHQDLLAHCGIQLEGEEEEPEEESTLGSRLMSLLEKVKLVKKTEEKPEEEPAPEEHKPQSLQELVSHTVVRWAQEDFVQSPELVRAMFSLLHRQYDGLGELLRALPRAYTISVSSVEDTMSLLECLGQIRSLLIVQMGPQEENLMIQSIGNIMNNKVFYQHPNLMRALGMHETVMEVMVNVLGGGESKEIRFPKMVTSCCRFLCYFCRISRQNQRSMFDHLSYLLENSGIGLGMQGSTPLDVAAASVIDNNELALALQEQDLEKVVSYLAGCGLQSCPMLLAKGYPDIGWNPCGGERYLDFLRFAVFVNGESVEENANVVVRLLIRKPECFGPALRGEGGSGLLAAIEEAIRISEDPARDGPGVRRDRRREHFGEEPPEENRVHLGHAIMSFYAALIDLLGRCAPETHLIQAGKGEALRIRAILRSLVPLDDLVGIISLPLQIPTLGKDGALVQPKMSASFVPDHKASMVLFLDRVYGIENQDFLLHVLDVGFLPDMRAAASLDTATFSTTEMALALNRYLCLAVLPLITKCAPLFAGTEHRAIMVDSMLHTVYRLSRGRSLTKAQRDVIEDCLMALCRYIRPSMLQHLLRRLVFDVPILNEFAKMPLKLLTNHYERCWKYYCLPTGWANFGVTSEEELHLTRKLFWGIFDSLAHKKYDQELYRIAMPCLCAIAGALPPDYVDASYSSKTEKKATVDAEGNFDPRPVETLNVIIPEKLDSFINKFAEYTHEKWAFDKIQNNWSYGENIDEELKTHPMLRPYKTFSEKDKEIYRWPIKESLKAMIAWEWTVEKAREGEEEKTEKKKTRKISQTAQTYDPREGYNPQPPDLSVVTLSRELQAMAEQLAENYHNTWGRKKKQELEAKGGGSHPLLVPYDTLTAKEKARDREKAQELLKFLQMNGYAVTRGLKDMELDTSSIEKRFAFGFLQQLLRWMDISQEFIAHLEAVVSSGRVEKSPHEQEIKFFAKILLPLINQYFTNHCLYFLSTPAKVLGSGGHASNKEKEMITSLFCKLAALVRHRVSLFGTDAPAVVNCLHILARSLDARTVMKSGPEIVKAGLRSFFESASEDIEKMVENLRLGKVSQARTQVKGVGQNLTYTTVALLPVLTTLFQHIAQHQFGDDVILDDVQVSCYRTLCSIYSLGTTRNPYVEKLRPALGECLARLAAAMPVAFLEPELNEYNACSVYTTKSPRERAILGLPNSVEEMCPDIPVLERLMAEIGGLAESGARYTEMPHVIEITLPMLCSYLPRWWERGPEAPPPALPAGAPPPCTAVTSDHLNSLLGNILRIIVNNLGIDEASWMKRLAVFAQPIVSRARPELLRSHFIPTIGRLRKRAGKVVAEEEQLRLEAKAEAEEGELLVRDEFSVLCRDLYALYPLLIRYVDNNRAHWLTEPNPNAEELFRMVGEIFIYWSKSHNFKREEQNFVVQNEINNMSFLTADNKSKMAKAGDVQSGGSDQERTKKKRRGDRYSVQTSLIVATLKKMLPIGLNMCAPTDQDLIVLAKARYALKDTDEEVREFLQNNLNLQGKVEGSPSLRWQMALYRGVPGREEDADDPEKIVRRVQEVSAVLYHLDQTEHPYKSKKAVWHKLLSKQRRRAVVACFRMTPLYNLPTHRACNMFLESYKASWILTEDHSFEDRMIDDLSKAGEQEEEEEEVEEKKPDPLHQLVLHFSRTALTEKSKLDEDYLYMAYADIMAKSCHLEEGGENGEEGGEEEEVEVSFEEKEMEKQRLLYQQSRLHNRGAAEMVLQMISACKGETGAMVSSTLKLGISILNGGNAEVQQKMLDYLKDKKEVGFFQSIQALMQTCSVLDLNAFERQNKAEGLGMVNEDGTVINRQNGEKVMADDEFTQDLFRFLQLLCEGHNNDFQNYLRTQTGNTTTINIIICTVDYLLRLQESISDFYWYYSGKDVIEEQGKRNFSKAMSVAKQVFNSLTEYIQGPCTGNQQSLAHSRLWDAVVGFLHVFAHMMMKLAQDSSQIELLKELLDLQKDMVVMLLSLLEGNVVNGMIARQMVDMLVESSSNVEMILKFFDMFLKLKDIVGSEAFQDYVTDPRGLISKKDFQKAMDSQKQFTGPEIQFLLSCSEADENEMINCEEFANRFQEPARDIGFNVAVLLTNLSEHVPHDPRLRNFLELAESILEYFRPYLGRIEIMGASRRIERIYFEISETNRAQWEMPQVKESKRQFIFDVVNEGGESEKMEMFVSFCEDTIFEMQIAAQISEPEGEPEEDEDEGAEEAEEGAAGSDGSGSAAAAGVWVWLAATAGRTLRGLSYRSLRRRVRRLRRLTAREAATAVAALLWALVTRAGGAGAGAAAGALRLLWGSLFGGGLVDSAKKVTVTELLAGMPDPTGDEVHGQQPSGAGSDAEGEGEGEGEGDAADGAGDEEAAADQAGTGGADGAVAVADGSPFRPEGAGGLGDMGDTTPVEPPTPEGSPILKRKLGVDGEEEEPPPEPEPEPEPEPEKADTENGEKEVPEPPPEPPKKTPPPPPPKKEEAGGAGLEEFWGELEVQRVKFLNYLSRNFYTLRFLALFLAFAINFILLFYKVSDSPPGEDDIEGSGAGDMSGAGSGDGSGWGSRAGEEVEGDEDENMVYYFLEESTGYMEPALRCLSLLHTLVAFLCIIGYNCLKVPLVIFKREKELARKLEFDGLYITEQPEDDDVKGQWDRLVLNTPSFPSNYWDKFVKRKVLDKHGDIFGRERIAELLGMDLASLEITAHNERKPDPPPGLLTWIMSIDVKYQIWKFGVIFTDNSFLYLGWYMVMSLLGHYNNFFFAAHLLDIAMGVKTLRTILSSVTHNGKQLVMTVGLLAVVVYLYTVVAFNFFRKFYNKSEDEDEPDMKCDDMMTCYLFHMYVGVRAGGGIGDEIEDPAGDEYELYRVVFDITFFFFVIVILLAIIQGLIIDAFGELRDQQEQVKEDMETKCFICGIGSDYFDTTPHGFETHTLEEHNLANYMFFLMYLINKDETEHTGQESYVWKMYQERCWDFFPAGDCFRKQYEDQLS
T2 sequence (E9PZQ0 whole entry E4242G): as the sequence (E9PZQ0 whole entry) above, with E4242G counted along it

**Q.** Which results are given for `Cc1cc(O)ccc1Cl` [4-CmC, 4-chloro-m-cresol]?
**A.** t1/2act (rate of SR Ca^2+ release) [1]: 2.2 ± 0.6 s; peak ΔF/F (Ca^2+ release) ([1]; n=5): 1.4±0.1; t1/2act (rate of SR Ca^2+ release) [2]: 6.5 ± 2.4 s; peak ΔF/F (Ca^2+ release) ([2]; n=3): 1.2±0.1; ΔF/F (Ca^2+ release) [3]: 0.1±0.0
